Several values for one entry are separate records, joined by “and”; a condition that tells them apart may be missing. Equal values may be shown once.

By EC50 is commonly meant the concentration needed to bring the measured effect to its halfway point.

For the experiment, the system named is 3T3-L1 adipocytes. Put plainly: [3H]-2-deoxy-glucose uptake by adipocytes. In kind it is cell-based, Murine. As for the experimental part:
To determine if one mechanism for glyceollins to improve the oral glucose challenge in a prediabetic model is by increasing the glucose uptake by fat, glyceollin pharmacology was studied in 3T3-L1 cells. Murine preadipocytes (Zen-Bio Inc.) were cultured using PM-1-L1 medium (Zen-Bio Inc.) containing Dulbecco's modified Eagle's medium (DMEM)/Ham's F-10 medium (1:1, v/v), HEPES 15 mM (pH 7.4), 10% (v/v) fetal bovine serum, penicillin (100 U/ml), streptomvcin ([…]), and amphotericin B (0.25 μg/ml) in a humidified atmosphere (5% CO2/95% air). After 3-4 days, confluent cells were placed in differentiation medium (DM-2-L1, Zen-Bio Inc.) containing DMEM/Ham's F-10 medium (1:1, v/v), HEPES 15 mM (pH 7.4), 3% (v/v) fetal bovine serum, biotin ([…]), pantothenate (17 μM), human insulin (100 nM), dexamethasone (1 μM), penicillin (100 U/ml), streptomycin (100 μg/ml), amphotericin B (0.25 μg/ml), isobutylmethylxanthine ([…]) and PPARγ agonist (10 μM) and further incubated in the humidified atmosphere for 3 days. […]
Adipocytes were rinsed in sterile, fresh KRH buffer (HEPES pH=7.4, 1 mM CaCl2, 1.2 mM MgSO4, 1 mM KH2PO4, 1.4 mM KCl, […], 130 mM NaCl), and then preincubated for 24 h in KRH buffer. […] The vials were mixed and counted for 10 min in an Applied Biosystems 1100 liquid scintillation counter using the factory preset window to detect tritium.

In the case of insulin, the “maximal stimulation relative to basal glucose uptake” value (0.3 nM-300 nM insulin) is recorded as “about 3 times”. Moreover, the concentration giving a half-maximal response (EC50) (insulin 30 min at 37° C., then 10 min [3H]-2-deoxy-glucose, read-out: EC50 of insulin-mediated glucose uptake) is 1.9 nM and 1.92 nM.

The values above are taken from US20170065554A1, “ACTIVATED SOY POD FIBER” (priority 2014, published 2017).
